Experimental data as given in US4260613A, “Pyridoxine derivatives” (Crinos Industria Farmacobiologica S.p.A., priority 1978, dated 1981).

Key:
Type in all cases: in vivo
[1] = system: caraganin-edema, normal rat; experiment: Caraganin-edema test according to Winter et al in the normal rat (anti-inflammatory activity); conditions: 25 mg/kg per os, 3hrs, vs controls
Experimental: Caraganin-edema test according to Winter et al (Proc. Soc. Exp. Biol. Med., 111, 544, 1962) in the normal rat. The anti-inflammatory activity is expressed as a percentage of inhibition, after 3 and 6 hours, with respect to the controls.

[2] = system: rat; experiment: Ulcer-causing activity, UD50 per os in the rat (gastric lesions 7 h after treatment); conditions: in words, vs 2-(4-isobutylphenyl)-propionic acid
Experimental: The ulcer-causing activity has been determined by administering the substances per os to rats which have fasted 18 hours and evaluating the presence of gastric lesions 7 hours after the treatment. The UD50 has been determined according to Litchfield and Wilcoxon (J. Pharmacol. Exp. Ther. 96, 99, 1949).

[3] = system: mouse; experiment: Acute toxicity, LD50 per os in the mouse (sole dose, 18 h fasting); conditions: in words, vs 2-(4-isobutylphenyl)-propionic acid
Experimental: The acute toxicity has been determined by administering the substances per os in a sole dose to the mouse after 18 hours of fasting. The LD50 has been determined according to Litchfield and Wilcoxon (J. Pharmacol. Exp. Ther. 96, 99, 1949).

Row | SMILES | ANTI-INFLAMMATORY Inhibition % [1] [%] | ulcer-causing activity with respect to the free acid [2] | toxicity with respect to the free acid [3]
1 | Cc1ncc(COC(=O)C(C)c2ccc(CC(C)C)cc2)c(CO)c1O (centres unmarked) [2-(4-isobutyl-phenyl)-propionic pyridoxine 5-ester] | 43.6 | lower toxicity and ulcer-causing activity | lower toxicity
2 | Cc1ncc(COC(=O)C(C)c2ccc(CC(C)C)cc2)c2c1OC(C)(C)OC2 (centres unmarked) [2-(4-isobutylphenyl)-propionic isopropylidene-pyridoxine 5-ester] | – | lower toxicity and ulcer-causing activity | lower toxicity
